Data reported in patent publication EP1222921B1, “Pharmaceutical compositions of tizoxanide and/or nitazoxanide” (Romark Laboratories, L.C., priority 1997, dated 1998).
Several values for one entry are separate records, joined by “and”; a condition that tells them apart may be missing. Equal values may be shown once.

Assays:
[1] = tested on: mature (13-week/old) Schistosoma hematobium; experiment: Experimentally infected mice, worm count; type: in vivo
Procedure: (§1) Nitazoxanide was tested against Schistosoma mansoni and Schistosoma hematobium in experimentally infected mice. Forty (40) white mice, weighing 30 to 50 grams were allocated to two treatment groups of 20 animal per group. The first group was infected with 300-500 Schistosoma mansoni free active cercariae suspended in 0.25 ml of distilled water and administered to each mouse by intraperitoneal injection. The second group was infected in the same manner but with Schistosoma hemotobium cercariae. These two groups were then kept for a total of 70 days in the laboratory. Seventy days after infection of the animals, ten mice from each group were treated with nitazoxanide as a 1.3 mg oral dose administered, morning and evening, for 7 consecutive days. Seven days after the end of treatment tall mice were sacrificed and the worms were extracted from the liver of each animal by perfusion using tepid water (37°C). The extracted schistosomes were counted for all treatment and control animals. The efficacy of nitazoxanide was calculated busing the formula indicated below: % efficacy(a - b)/(a)x 100 [formula] Where: • a = the number of schistosomes recovered from feces in the control animals • b = the number of schistosomes recovered from feces in the treated animals

[2] = tested on: mature (13-week/old) Schistosoma mansoni; experiment: Experimentally infected mice, worm count; type: in vivo
Procedure: as §1

[3] = tested on: immature (4-week/old) F. gigantica; experiment: Experimentally infected rabbits, immature flukes; type: in vivo, Fasciola gigantica
Procedure: Nitazoxanide was tested against immature and mature Fasciola gigantica in experimentally infected rabbits. Fasciola gigantica encysted metacercariae (EMC) were collected on cellophane sheet after 28-35 days from infection of L. calludi snails by Fasciola gigantica miracidium using the technique described by […] snails were exposed daily to artificial light, for 30 minutes, in clean dechlorinated tap water. The resulting encysted […]) were preserved at 4°C in a refrigerator for 5 to 8 days under the surface of water until they were used to infect experimental animals. Forty (40) Boscat rabbits, weighting 1.5 to 2 kg each, were included in the study and allocated to two treatment groups of 20 animals. Animals from Group 1 were orally infected with 35-40 encysted […] wrapped in a leaf of lettuce and pushed on the root of the tongue of the animals. The mouths of the animals were held closed by hand until the encysted metacercariae were swallowed. These Group 1 animals were used to test the efficacy of nitazoxanide against immature stages (4-5 weeks old) of Fasciola […]. Ten animals from Group 1 received 35 mg of nitazoxanide, morning and evening, for 7 consecutive days 4 weeks after their infection at the immature stage of the parasite cycle. The ten remaining animals in Group 1 were kept as untreated controls. All animals were fed with dry ration until the end of the experiment. Seven days after administration of the last dose of nitazoxanide, all rabbits from each group were sacrificed. The surface of the liver was examined for the presence of necrotic migrating furrows especially at the immature stage of the parasite cycle. These necrotic areas were examined using two surgical needles in order to extract the juvenile migrating flukes according to the technique described by El-Bahy. The livers were sliced in small pieces especially around the migrating furrows and macerated under a microscope in order to extract the existing flukes. The abdominal cavity and the visceral surfaces were washed with warm water. The water was then collected, sieved and examined for identification of juvenile flukes. All the collected parasites as well as parts of them were counted in both treated and untreated animal in both Groups 1 and 2. […] The efficacy of nitazoxanide was calculated by using the formula indicated below: % efficacy(a - b)/(a)x 100 [formula] Where: • a = the number of flukes recovered from feces in the control animals • b = the number of flukes recovered from feces in the treated animals.

[4] = tested on: Fasciola hepatica; experiment: In vitro culture of mature flukes
Procedure: The in vitro efficacy of nitazoxanide and desacetyl-nitazoxanide was tested against Fasciola hepatica. Mature F. hepatica were recovered from the bile ducts of 3 calf livers condemned due to fasciolosis at the Louisiana Veterinary Medical Diagnostic Laboratory at the Hardy's Meat […], Bunkie, LA. Flukes were washed in sterile saline for 1 hour and transferred to sterile saline or RPMI (pH 7.4) for an additional 3 hours. Flukes were then held in sterile RPMI-rabbit serum (50:50 v/v) or sterile RPMI (pH 7.4) overnight at 37°C with 5% CO2. In vitro culture (37°C, 5% CO2) was done according to a modification of the method of Ibarra and Jenkins ([…]. 70:655-661, 1984). […] Only flukes that had normal activity and morphology were used. […] Two control flukes were included in each replicate, […] and one in unmedicated culture media […]. Flukes were examined for the effects of drug treatment as evidenced by death, motility disturbances or morpholgic changes as compared to untreated control flukes, using a backlighted panel and a lighted 3X magnifying lens.

[5] = tested on: C. parvum oocysts; experiment: Intact C. parvum oocyst assay (Example III), immunofluorescence; type: cell-based, Cryptosporidium parvum; settings: for Parasite - Mean parasite count/field (12 fields analyzed) / %Inhib - Percent inhibitation of parasite infection: 48 hr.; for %Inhib - Percent inhibitation of parasite infection: listed as NTZ
Procedure: Each concentration of nitazoxanide and the media controls contained 0.025% DMSO as a constant. The experiment used a cell culture of MDBKF5D2 Cells grown in 7 mm chambers, and as Cryptosporidium parvum: GCH1 oocysts, 5 X 10^4 per well, and was conducted to compare paromomycin (positive control) against nitazoxanide (experimental drug). […] 5 x 104 C. parvum oocysts per well are incubated in the pre-mentioned concentrations of nitazoxanide at 37°C (8% CO2) on confluent MDBKF5D2 cell monolayers. The level of infection in each well was determined and computer analyzed by an immunofluorescence assay at 48 hours. […] (Medium control count - Drug test count)/(Medium control count)x 100 [formula] Conc. - µg/ml; Parasite - Mean parasite count/field (12 fields analyzed); %Inhib - Percent inhibitation of parasite infection; % Tox- Percent toxicity to cells by the drug.

[6] = tested on: S. mansoni; settings: posttreatment positive egg-counts; report by Abaza et al.; cited from earlier work
[7] = tested on: MRC5 fibroblasts; settings: human, 72 h
[8] = 10 mice, 2.6 mg/day for 7 consecutive days
[9] = individual mice No. 1-10, 1.3 mg oral morning and evening for 7 consecutive days, 70 days after infection
[10] = total of 10 mice, 2.6 mg/day for 7 consecutive days
[11] = mean of 10 rabbits, 70 mg/day for 7 consecutive days

CC(=O)Oc1ccccc1C(=O)Nc1ncc([N+](=O)[O-])s1 [Nitazoxanide, 2-(acetolyloxy)-N-(5-nitro 2-thiazoly) benzamide]
No. of flukes removed from liver of Treated Mice, Mean/Mouse [1, 8]: 2.4 | No. of flukes removed from liver of Treated Mice [1, 9]: 2 (5×) and 0.0 and 3 (2×) and 4 (2×) | No. of flukes removed from liver of Treated Mice, Total [1, 10]: 24 | Efficacy (worm reduction) ([1]; versus control animals, 2.6 mg/day for 7 consecutive days): 82.85% | No. of flukes removed from liver of Treated Mice, Mean/Mouse [2, 8]: 9.9 | No. of flukes removed from liver of Treated Mice [2, 9]: 12 and 8 and 7 and 10 (3×) and 9 (2×) and 11 and 13 | No. of flukes removed from liver of Treated Mice, Total [2, 10]: 99 | Efficacy (worm reduction) ([2]; versus control mice, 2.6 mg/day for 7 consecutive days): 59.91% | overall efficacy ([3]; 70 mg/day dose for 7 consecutive days): moderately effective | No. of flukes extracted from liver of Treated Rabbits ([3]; individual rabbits No. 1-10, 35 mg morning and evening for 7 consecutive days, 4 weeks after infection): 3 (5×) and 4 (4×) and 2 | Efficacy % ([3]; individual rabbits No. 1-10 versus untreated control, 35 mg morning and evening for 7 consecutive days): 50% (4×) and 40% (3×) and 42% (2×) and 60% | Efficacy %, Mean (means percentage of reduction) [3, 11]: 46.77% | No. of flukes extracted from liver of Treated Rabbits, Mean [3, 11]: 3.3 | percentage of reduction, range ([3]; range over 10 rabbits, 70 mg/day for 7 consecutive days): 40-60% | effects on flukes (death, motility disturbances) ([4]; 1 µg treatment): one fluke died by hour 16, three by hour 41 and five by hour 74; 3 flukes remained active at hour 91 and one fluke had activity at hour 115 | effects on flukes (death, motility disturbances) ([4]; 3 µg treatment): By 23 hours, only 2 sluggish flukes in the 3 µg group remained alive; these were dead by hour 41 | effects on flukes (death, motility disturbances) ([4]; 5 µg treatment): only 3 flukes were active at hour 6 and none were active at 16 hours | effects on flukes (death, motility disturbances) ([4]; 10 µg treatment): only one fluke survived to 16 hours | effects on flukes (death, motility disturbances) ([4]; 25 µg treatment): all flukes were dead or moribund except one fluke at 1 hour in the 25 µg group it was dead at 3 hour | effects on flukes (death, motility disturbances) ([4]; 50 µg treatment): all flukes were dead or moribund | effects on flukes (death, motility disturbances) ([4]; 100 µg treatment): all flukes were dead or moribund | Parasite - Mean parasite count/field (12 fields analyzed) ([5]; Conc 0.01 µg/ml, 0.025% DMSO): 714.33 | Parasite - Mean parasite count/field (12 fields analyzed) ([5]; Conc 0.1 µg/ml, 0.025% DMSO): 643.42 | Parasite - Mean parasite count/field (12 fields analyzed) ([5]; Conc 1 µg/ml, 0.025% DMSO): 39.67 | %Inhib - Percent inhibitation of parasite infection ([5]; Conc 1 µg/ml, 0.025% DMSO): 93.69% | Parasite - Mean parasite count/field (12 fields analyzed) ([5]; Conc 10 µg/ml, 0.025% DMSO): 11.75 | %Inhib - Percent inhibitation of parasite infection ([5]; Conc 10 µg/ml, 0.025% DMSO): 98.13% | inhibition at 0.01 µg/mL ([5]; Cryptosporidium parvum, 48 h, Conc 0.01 µg/ml, 0.025% DMSO, read-out: %Inhib - Percent inhibitation of parasite infection): ≤ 0% | inhibition at 0.1 µg/mL ([5]; Cryptosporidium parvum, 48 h, Conc 0.1 µg/ml, 0.025% DMSO, read-out: %Inhib - Percent inhibitation of parasite infection): ≤ 0% | inhibition at 1 µg/mL ([5]; Cryptosporidium parvum, 48 h, Conc 1 µg/ml, 0.025% DMSO, read-out: %Inhib - Percent inhibitation of parasite infection): 94% | inhibition at 10 µg/mL ([5]; Cryptosporidium parvum, 48 h, Conc 10 µg/ml, 0.025% DMSO, read-out: %Inhib - Percent inhibitation of parasite infection): 98% | lowest concentration giving more than 90% of inhibition ([5]; in vitro against Cryptosporidium parvum): 1 µg/mL | efficacy in patients [6]: not effective | concentrations with marked toxicity on the cell monolayer [7]: ≥ 2500 ng/mL
